Measured values as given in US20100273772A1, “Bisaryl Alkynylamides as Negative Allosteric Modulators of Metabotropic Glutamate Receptor 5 (MGLUR5)” (Wyeth LLC, priority 2009, published 2010).

Experiments:
[1] = target: T1, rat mGluR5 receptor (Rattus norvegicus, UniProt P31424); test: [3H]-MPEP binding HEK-293 cell membranes expressing a rat mGluR5 receptor; conditions: displacement of 4 nM [3H]-MPEP, HEK-293 cell membranes expressing rat mGluR5, 60 minute at room temperature; read-out: mGluR5 Ligand Binding DR Ki
T1 construct: expressed in transfected cells; host or cells: HEK-293
T1 sequence (P31424 21-1203): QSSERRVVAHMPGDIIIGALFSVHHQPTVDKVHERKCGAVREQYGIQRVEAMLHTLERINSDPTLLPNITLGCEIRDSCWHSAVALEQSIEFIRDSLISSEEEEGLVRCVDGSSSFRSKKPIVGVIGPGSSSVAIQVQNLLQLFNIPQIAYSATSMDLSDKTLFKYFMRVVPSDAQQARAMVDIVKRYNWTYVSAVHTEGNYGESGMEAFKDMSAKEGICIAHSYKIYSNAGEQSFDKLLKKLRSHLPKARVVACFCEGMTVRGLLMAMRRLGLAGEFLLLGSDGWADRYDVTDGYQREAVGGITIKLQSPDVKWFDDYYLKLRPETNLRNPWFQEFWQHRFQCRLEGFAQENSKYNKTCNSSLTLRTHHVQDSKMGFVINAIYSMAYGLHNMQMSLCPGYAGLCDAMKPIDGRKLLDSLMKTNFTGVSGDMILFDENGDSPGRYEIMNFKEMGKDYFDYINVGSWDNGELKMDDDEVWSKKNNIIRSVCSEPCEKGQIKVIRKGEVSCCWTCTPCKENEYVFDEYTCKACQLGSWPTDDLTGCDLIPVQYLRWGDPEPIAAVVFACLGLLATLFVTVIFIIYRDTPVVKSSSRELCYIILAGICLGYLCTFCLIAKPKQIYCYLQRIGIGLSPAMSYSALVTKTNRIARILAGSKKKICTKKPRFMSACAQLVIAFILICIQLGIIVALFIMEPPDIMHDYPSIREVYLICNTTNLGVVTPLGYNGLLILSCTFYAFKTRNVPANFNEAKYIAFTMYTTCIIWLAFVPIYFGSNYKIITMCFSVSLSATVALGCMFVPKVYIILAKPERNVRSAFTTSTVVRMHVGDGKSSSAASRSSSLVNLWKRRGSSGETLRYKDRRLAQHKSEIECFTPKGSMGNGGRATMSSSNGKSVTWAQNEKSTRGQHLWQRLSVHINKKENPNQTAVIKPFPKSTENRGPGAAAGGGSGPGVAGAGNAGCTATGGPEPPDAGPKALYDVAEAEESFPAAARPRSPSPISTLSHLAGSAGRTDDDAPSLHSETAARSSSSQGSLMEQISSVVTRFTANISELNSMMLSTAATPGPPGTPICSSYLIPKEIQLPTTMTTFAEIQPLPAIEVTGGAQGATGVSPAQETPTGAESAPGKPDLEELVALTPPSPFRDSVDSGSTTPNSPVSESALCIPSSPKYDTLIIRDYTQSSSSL
Experimental: TITLE: [^3H]-MPEP binding HEK-293 cell membranes expressing a rat mGluR5 receptor. PURPOSE: To identify high affinity compounds at the rat mGluR5 receptor based on their ability to displace the mGluR5 negative allosteric modulator, MPEP.
mGluR5 expressing HEK-293 cells are scraped off the plate, transferred to centrifuge tubes, and washed twice by centrifugation (2000 rpm for 10 min., 4° C.) in buffer (50 mM Tris pH 7.5). The resulting pellets are aliquoted and placed at −80° C. On the day of assay, the cells are thawed on ice, and resuspended in buffer. The binding assay is performed in a 96 well microtiter plate in a total volume of 250 μL. Non-specific binding is determined in the presence of 10 μM MPEP. Binding reaction includes a final radioligand [^3H]-MPEP concentration of 4 nM and 12-25 ug membrane protein per well. Following a 60 minute incubation at room temperature, the reaction is terminated by the addition of ice cold buffer and rapid filtration through a GF/B filter presoaked for 30 minutes in 0.5% PEI. Compounds are initially tested in a single point assay to determine percent inhibition at 10 μM. Subsequently, Ki values are determined for compounds defined to be active.
% inhibition and Ki values generated by GraphPad Prism and Excel Fit. IC50 values are calculated using GraphPad by fitting to a 1 or 2 site-binding model. Ki values are calculated from the apparent IC50 values using the Cheng-Prussof equation:
(§1) where [L]=concentration of free radioligand and Kd=dissociation constant of radioligand for the receptor. TITLE: Identification of metabotropic glutamate receptor 5 antagonists using a stable, sensitive fluorescence-based screening system PURPOSE: The aim of the research presented here was to develop a robust functional assay to measure changes in intracellular calcium, with the goal of identifying potent mGluR5 antagonists.

[2] = target: T2, metabotropic glutamate receptor 5 (Rattus norvegicus, UniProt P31424); test: FLIPR Calcium 3 fluorescence-based functional assay of intracellular calcium, mGluR5 antagonist activity; format: cell-based; conditions: inhibition of glutamate (EC90, ~50 uM) stimulated calcium levels, mGluR5 HEK-293 cells; read-out: mGluR5 FLIPR MP Antagonist DR IC50
T2 construct: expressed in transfected cells; host or cells: HEK-293
T2 sequence (P31424 21-1203): as above
Text: as §1
The FLIPR Calcium 3 Assay Kit is designed to work with many cell types, both adherent and non-adherent. Optimal cell conditions for the FLIPR Calcium 3 Assay Kit require the creation of a confluent cell monolayer before placing the plates in FLIPR or FlexStation. In general, we start with 50,000 mGluR5 HEK-293 cells/well for a 96-well plate. For adherent cells, seeding cells overnight with a plating volume of 100 μL/well worked for 96-well plates.
Remove cell plates from the incubator. Remove the supernatant medium. Add 180 ul of Loading Buffer to each well (for 96-well plates). HBSS buffer component B) pipette 100 mL of 10× Hank's Balanced Salt Solution and 20 mL of 1M Hepes buffer
Incubate cell plates for 1 hour at 37° C. and then keep the plates at room temperature until used.
After incubation, transfer the plates directly to FLIPR and begin the calcium assay as described in the FLIPR system manual. For a signal test, a starting average count of ˜10,000 is recommended. Recommended experimental setup parameters are as follows. Faster addition speeds can lead to better mixing of compounds and lower signal variance across the plate.
Test or reference compound is added to the 96-well plate (manually). […] Relative Fluorescence Units (RFUs) are recorded over a given time period (stated above) depending on the platform system used.
For antagonists, results are expressed as % inhibition of glutamate stimulated Calcium levels. IC50 values were calculated by Prism GraphPad using a 4-parameter logistic equation. IC50 values are calculated using GraphPad by fitting to a 1 site-model.

Ki [1]	IC50 [2]	Compound
3 nM	34 nM	COc1ccc(C(=O)N2CCc3cccc(OC)c3C2)cc1C#Cc1ccccn1 [Example 21, 8-methoxy-2-[4-methoxy-3-(pyridin-2-ylethynyl)benzoyl]-1,2,3,4-tetrahydroisoquinoline]
8 nM	61 nM	COc1ccc2c(c1)CCN(C(=O)c1ccc(OC)c(C#Cc3ccccn3)c1)C2 [Example 31, 6-methoxy-2-[4-methoxy-3-(pyridin-2-ylethynyl)benzoyl]-1,2,3,4-tetrahydroisoquinoline]
3 nM	42 nM	COc1ccc(C(=O)N2Cc3ccc(C)cc3C2)cc1C#Cc1ccccn1 [Example 32, 2-[4-methoxy-3-(pyridin-2-ylethynyl)benzoyl]-5-methylisoindoline]
17 nM	1450 nM	COc1ccc(C(=O)N2Cc3cc(Cl)c(Cl)cc3C2)cc1C#Cc1ccccn1 [Example 34, 5,6-dichloro-2-[4-methoxy-3-(pyridin-2-ylethynyl)benzoyl]isoindoline]
6 nM	25 nM	COc1ccc(C(=O)N2Cc3cccc(F)c3C2)cc1C#Cc1ccccn1 [Example 36, 4-fluoro-2-[4-methoxy-3-(pyridin-2-ylethynyl)benzoyl]isoindoline]
6 nM	40 nM	COc1ccc(C(=O)N2Cc3ccc(F)cc3C2)cc1C#Cc1ccccn1 [Example 37, 5-fluoro-2-[4-methoxy-3-(pyridin-2-ylethynyl)benzoyl]isoindoline]
2 nM	51 nM	COc1ccc(C(=O)N2Cc3cccc(Cl)c3C2)cc1C#Cc1ccccn1 [Example 38, 4-chloro-2-[4-methoxy-3-(pyridin-2-ylethynyl)benzoyl]isoindoline]
22 nM	21 nM	COc1ccc(C(=O)N2CCc3ncc(C)cc3C2)cc1C#Cc1ccccn1 [Example 40, 6-[4-methoxy-3-(pyridin-2-ylethynyl)benzoyl]-3-methyl-5,6,7,8-tetrahydro-1,6-naphthyridine]
26 nM	12 nM	COc1ccc(C(=O)N2Cc3cnc(C)cc3C2)cc1C#Cc1ccccn1 [Example 41, 2-[4-methoxy-3-(pyridin-2-ylethynyl)benzoyl]-6-methyl-2,3-dihydro-1H-pyrrolo[3,4-c]pyridine]
20 nM	28 nM	COc1ccc(C(=O)N2Cc3cnc(C)c(C)c3C2)cc1C#Cc1ccccn1 [Example 42, 2-[4-methoxy-3-(pyridin-2-ylethynyl)benzoyl]-6,7-dimethyl-2,3-dihydro-1H-pyrrolo[3,4-c]pyridine]
12 nM	17 nM	COc1ccc(C(=O)N2Cc3cnc(C)c(Cl)c3C2)cc1C#Cc1ccccn1 [Example 43, 7-chloro-2-[4-methoxy-3-(pyridin-2-ylethynyl)benzoyl]-6-methyl-2,3-dihydro-1H-pyrrolo[3,4-c]pyridine]
20 nM	14 nM	COc1ccc(C(=O)N2Cc3cnc(C)c(N)c3C2)cc1C#Cc1ccccn1 [Example 44, 2-[4-methoxy-3-(pyridin-2-ylethynyl)benzoyl]-6-methyl-2,3-dihydro-1H-pyrrolo[3,4-c]pyridin-7-amine]
31 nM	35 nM	COc1ccc(C(=O)N2Cc3cnc(C)c(OC)c3C2)cc1C#Cc1ccccn1 [Example 45, 7-methoxy-2-[4-methoxy-3-(pyridin-2-ylethynyl)benzoyl]-6-methyl-2,3-dihydro-1H-pyrrolo[3,4-c]pyridine]
31 nM	18 nM	COc1ccc(C(=O)N2Cc3ccncc3C2)cc1C#Cc1ccccn1 [Example 46, 2-[4-methoxy-3-(pyridin-2-ylethynyl)benzoyl]-2,3-dihydro-1H-pyrrolo[3,4-c]pyridine]
13 nM	30 nM	COc1ccc(C(=O)N2CCc3ncc(Cl)cc3C2)cc1C#Cc1ccccn1 [Example 51, 3-chloro-6-{[4-methoxy-3-(pyridin-2-ylethynyl)phenyl]carbonyl}-5,6,7,8-tetrahydro-1,6-naphthyridine]
27 nM	4 nM	COc1ccc(C(=O)N2CCc3[nH]ncc3C2)cc1C#Cc1ccccn1 [Example 53, 5-{[4-methoxy-3-(pyridin-2-ylethynyl)phenyl]carbonyl}-4,5,6,7-tetrahydro-1H-pyrazolo[4,3-c]pyridine]

The remaining lines, values behind:

Compound	Ki [1]	IC50 [2]
COc1ccc(C(=O)N2CCc3ccccc3C2c2cccs2)cc1C#Cc1ccccn1 (centres unmarked) [Example 22, 2-[4-methoxy-3-(pyridin-2-ylethynyl)benzoyl]-1-(2-thienyl)-1,2,3,4-tetrahydroisoquinoline]	22 nM	220 nM
COc1ccc(C(=O)N2Cc3ccccc3C(S(=O)(=O)N3CCS(=O)(=O)CC3)C2)cc1C#Cc1ccccn1 (centres unmarked) [Example 25, 4-[(1,1-dioxidothiomorpholin-4-yl)sulfonyl]-2-[4-methoxy-3-(pyridin-2-ylethynyl)benzoyl]-1,2,3,4-tetrahydroisoquinoline]	70 nM	97 nM
COc1ccc(C(=O)N2CCc3ccccc3C2c2ccccc2)cc1C#Cc1ccccn1 (centres unmarked) [Example 26, 2-[4-methoxy-3-(pyridin-2-ylethynyl)benzoyl]-1-phenyl-1,2,3,4-tetrahydroisoquinoline]	57 nM	169 nM
COc1ccc(C(=O)N2CCc3ccccc3C2c2ccco2)cc1C#Cc1ccccn1 (centres unmarked) [Example 27, 1-(2-furyl)-2-[4-methoxy-3-(pyridin-2-ylethynyl)benzoyl]-1,2,3,4-tetrahydroisoquinoline]	21 nM	40 nM
COc1ccc(C(=O)N2Cc3ccccc3C(CNc3ccccc3)C2)cc1C#Cc1ccccn1 (centres unmarked) [Example 29, N-({2-[4-methoxy-3-(pyridin-2-ylethynyl)benzoyl]-1,2,3,4-tetrahydroisoquinolin-4-yl}methyl)aniline]	68 nM	447 nM
COc1ccc(C(=O)N2Cc3ccc(Br)cc3C2)cc1C#Cc1ccccn1 [Example 33, 5-bromo-2-[4-methoxy-3-(pyridin-2-ylethynyl)benzoyl]isoindoline]	2 nM	173 nM
COc1ccc(C(=O)N2Cc3ccc([N+](=O)[O-])cc3C2)cc1C#Cc1ccccn1 [Example 35, 2-[4-methoxy-3-(pyridin-2-ylethynyl)benzoyl]-5-nitroisoindoline]	23 nM	61 nM
COc1ccc(C(=O)N2CCc3ncccc3C2)cc1C#Cc1ccccn1 [Example 39, 6-[4-methoxy-3-(pyridin-2-ylethynyl)benzoyl]-5,6,7,8-tetrahydro-1,6-naphthyridine]	23 nM	26 nM
COc1ccc(C(=O)N2CCc3oc(C)nc3C2)cc1C#Cc1ccccn1 [Example 47, 5-{[4-methoxy-3-(pyridin-2-ylethynyl)phenyl]carbonyl}-2-methyl-4,5,6,7-tetrahydro[1,3]oxazolo[4,5-c]pyridine]	30 nM	33 nM
COc1ccc(C(=O)N2CCc3nc(C)sc3C2)cc1C#Cc1ccccn1 [Example 48, 5-{[4-methoxy-3-(pyridin-2-ylethynyl)phenyl]carbonyl}-2-methyl-4,5,6,7-tetrahydro[1,3]thiazolo[5,4-c]pyridine]	23 nM	42 nM
COc1ccc(C(=O)N2CCc3cccnc3C2)cc1C#Cc1ccccn1 [Example 50, 7-{[4-methoxy-3-(pyridin-2-ylethynyl)phenyl]carbonyl}-5,6,7,8-tetrahydro-1,7-naphthyridine]	17 nM	17 nM
COc1ccc(C(=O)N2CCc3ncc(C(F)(F)F)cc3C2)cc1C#Cc1ccccn1 [Example 52, 6-{[4-methoxy-3-(pyridin-2-ylethynyl)phenyl]carbonyl}-3-(trifluoromethyl)-5,6,7,8-tetrahydro-1,6-naphthyridine]	29 nM	49 nM
